Assay [1] addresses recombinant Nm23-H1 (Homo sapiens, UniProt P15531). As to the kind of experiment: NDPK assay with recombinant Nm23-H1. It is filed as biochemical. Conditions: 5 ng recombinant Nm23-H1, incubated 10 minutes at room temperature, then 5 μM ADP for 1 minute. The method, then:
NDPK assay was performed by incubating 5 ng of recombinant Nm23-H1 with each of test compounds (Examples 1 to 3) in NDPK assay buffer (20 mM HEPES, 3 mM MgCl2) at room temperature for 10 minutes, followed by reaction with 5 μM ADP for 1 minute.

Assay [2] deals with MDA-MB-321 cells. Briefly: 3D tumor spheroid model, co-treatment with paclitaxel. Conditions: co-treated with paclitaxel, 14 days after treatment, FIG. 5. It is filed as cell-based. The method, then:
In order to evaluate the effect of co-treatment with paclitaxel (PTX) which is used as a chemotherapeutic agent against triple negative breast cancer, the effect of co-treatment was evaluated using a 3D tumor spheroid model in a manner similar to Example 7.
Specifically, 7.5 K MDA-MB-321 cells were 3D-cultured in an ultra-low attachment (ULA) 96-well plate (Perkin Elmer) under a 2.5% Matrigel™ (BD Biosciences) condition. 5 days after 3D spheroid production, the cells were co-treated with the compound (B024) of Example 1 according to the present disclosure and paclitaxel in a concentration-dependent manner, and 14 days after the treatment, the cancer cell growth inhibitory effect of co-treatment was evaluated.

In assay [3] the test system is MDA-MB-321 cells. Briefly: 3D tumor spheroid model. The assay is classed as cell-based. Particulars: various concentrations, 14 days after treatment, FIG. 4. The method, then:
The cancer growth inhibitory effect of administration of the compounds according to the present disclosure was evaluated using a 3D tumor spheroid model. The 3D tumor spheroid structure has characteristics similar to solid cancer under normal stress conditions because it is not easy to transfer nutrients into cancer cells.
Specifically, 7.5 K MDA-MB-321 cells were 3D-cultured in an ultra-low attachment (ULA) 96-well plate (Perkin Elmer) under a 2.5% Matrigel™ (BD Biosciences) condition. 5 days after 3D spheroid production, the cells were treated with various concentrations of the compound (#24) of Example 1 according to the present disclosure, and 14 days after the treatment, the cancer cell growth inhibitory effect of the compound was evaluated.

Sequence of recombinant Nm23-H1 (P15531 whole entry): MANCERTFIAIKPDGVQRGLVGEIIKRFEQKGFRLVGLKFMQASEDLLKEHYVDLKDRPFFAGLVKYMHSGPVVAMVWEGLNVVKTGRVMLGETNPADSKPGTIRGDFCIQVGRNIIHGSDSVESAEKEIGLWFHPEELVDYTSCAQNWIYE

As to `COc1ccc(-c2cccc(C(O)c3ccc(OC)c(OC)c3)c2)cc1OC` (centres unmarked) [Example 1, (3′,4′-dimethoxy-[1,1′-biphenyl]-3-yl)(3,4-dimethoxyphenyl)methanol], the NDPK activity in assay [1] stood at 2.8. Also, in assay [2], the “cancer cell growth in 3D tumor spheroid model, co-administration with paclitaxel” value is recorded as “significantly inhibited cancer cell growth even at low concentrations”. Further, the “cancer cell growth in the 3D tumor spheroid model” value in assay [3] was “significantly inhibited cancer cell growth”.
In the case of `COc1ccc(Cc2cccc(-c3ccc(OC)c(OC)c3)c2)cc1OC` [Example 2, 3′-(3,4-dimethoxybenzyl)-3,4-dimethoxy-1,1′-biphenyl], the NDPK activity in assay [1] is recorded as 1.4.
For the compound `COc1ccc(C(=O)c2cccc(-c3ccc(OC)c(OC)c3)c2)cc1OC` [Example 3, (3′,4′-dimethoxy-[1,1′-biphenyl]-3-yl)(3,4-dimethoxyphenyl)methanone], the NDPK activity in assay [1] is 1.7.
